target: cAMP-dependent protein kinase type II-beta regulatory subunit (Homo sapiens) (UniProt P31323); assay: PKAc release from R2B regulatory subunit – biochemical, fluorescence polarization, EC50, human R2B, selectivity assay for PKA-R1A activator project, dose response (AID 504893); details: PKA-R2B holoenzyme, Cy5-IP20 fluorescence polarization activation
Sequence (P31323 whole entry, looked up): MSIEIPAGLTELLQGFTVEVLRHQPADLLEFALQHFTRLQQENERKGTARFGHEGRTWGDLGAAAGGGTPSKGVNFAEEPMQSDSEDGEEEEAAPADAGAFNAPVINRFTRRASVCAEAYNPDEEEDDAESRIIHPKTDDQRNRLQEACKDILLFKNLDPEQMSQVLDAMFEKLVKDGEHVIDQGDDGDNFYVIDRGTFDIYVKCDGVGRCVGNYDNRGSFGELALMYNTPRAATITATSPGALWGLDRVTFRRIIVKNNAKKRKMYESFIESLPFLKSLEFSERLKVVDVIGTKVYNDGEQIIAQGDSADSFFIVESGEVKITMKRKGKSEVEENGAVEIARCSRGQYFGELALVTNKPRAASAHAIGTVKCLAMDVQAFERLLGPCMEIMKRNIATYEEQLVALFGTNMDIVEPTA

EC50, active:
Nc1nc2c(nc(Br)n2[C@@H]2O[C@@H]3COP(=O)(O)O[C@H]3[C@H]2O)c(=O)[nH]1 2160 nM
Nc1ncnc2c1nc(Sc1ccc(Cl)cc1)n2[C@@H]1O[C@@H]2COP(=O)(O)O[C@H]2[C@H]1O 50.5 nM
CCCC(=O)Nc1ncnc2c1ncn2[C@@H]1O[C@@H]2OP(=O)(O)OC[C@H]2[C@H]1OC(=O)CCC 9100 nM
CCOP1(=O)OCC2OC(n3cnc4c(N)ncnc43)C(O)C2O1 (stereo not given) 3750 nM
Nc1ncnc2c1nc(Br)n2[C@@H]1O[C@@H]2COP(=O)(O)O[C@H]2[C@H]1O 51.1 nM

Source: PubChem BioAssay AID504893 (The Scripps Research Institute Molecular Screening Center, 2011)
